# Assay results from PubChem BioAssay (NCI).
# “And” between values parts separate entries of the source, which are not always exact repeats. Equal values may be shown once.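 48-hour exposure; five concentrations; linearly interpolated endpoints. Here, GI50 denotes the concentration required for 50% inhibition of growth. The concentration for full growth arrest is given as TGI.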
# System: MDA-MB-468 breast
# Assay: growth of human tumour cells (NCI), 48 h
Structure (SMILES),GI50,TGI
O=C1OCC2=C1C(c1cccc(C(F)(F)F)c1)c1cc3c(cc1N2CCO)CCC3 (stereo not given),0.127 µM,1.2 µM
Cc1ccc(F)cc1NC(=O)c1cc(Cl)ccc1Nc1ccccc1,> 100 µM,> 100 µM
N=C(N)c1ccc(-c2ccc(-c3ccc(F)cc3)o2)o1,1.36 µM,3 µM
COC1[C@@H]2C[C@H]3C(C)(C)O[C@@](C/C=C(/C)C(=O)O)(C2=O)[C@]32Oc3c(CC=C(C)C)c4c(c(O)c3C(=O)[C@H]12)C=CC(C)(C)O4 (stereo not given in full),7.46 µM,25 µM
CCCCCCCCCCCCCCCCn1cc[n+](Cc2ccccc2)c1C,0.305 µM,0.84 µM
O=C(/C=C\c1ccc2ccccc2n1)c1cc(Cl)ccc1O,5.1 µM,19.7 µM
Cc1cc(C)c2c(N)c3cccc(C)c3nc2n1,1.28 µM,3.37 µM
CC(C)CCC[C@@H](C)[C@H]1CCC2C3=CCC4C(=O)C=CC(=O)C4C3CC[C@@]21C (stereo not given in full),0.215 µM,0.57 µM
COc1ccc(/C=C\c2cc(OC)c(OC)c(OC)c2)cc1OCC(=O)Nc1nc2ccc(OC(F)(F)F)cc2s1,2.3 µM,6.88 µM
C=C(C)[C@@H]1CC[C@]2(C(=O)NCCNCCNCCN)CC[C@]3(C)[C@H](CC[C@@H]4[C@@]5(C)CCC(=O)C(C)(C)[C@@H]5CC[C@]43C)[C@@H]12,8.09 µM,16.1 µM
COc1ccc(-c2csc3c2-n2cccc2C3=O)cc1O,0.397 µM,2.43 µM
Nc1ccc(-n2c(=O)oc3ccc(Cl)cc3c2=O)c(Cl)c1,0.0903 µM,0.383 µM
Cc1ccc(-c2cc3nc(C(Cl)Cl)nc(-c4ccco4)n3n2)cc1,0.566 µM,3.05 µM
N/C(=N\c1nc2ccccc2s1)NC(=O)Nc1cccc2ccccc12,0.372 µM,22.7 µM
CCCCCCN1CCN(Cc2ccc(N(CC)CC)cc2)C(=O)C1=O,1.59 µM,16.1 µM
Nc1nc(-c2cccc([N+](=O)[O-])c2)c(N=Nc2ccc([N+](=O)[O-])cc2Cl)s1,0.131 µM,0.711 µM
Oc1ccc(CN(Cc2ccc(C(F)(F)F)cc2)Cc2ccc(O)c3ncccc23)c2cccnc12,0.0236 µM,2.23 µM
COc1ccc(-c2cc(-c3nnc(SCC(=O)Nc4ccc(C(C)=O)cc4)o3)c3ccccc3n2)cc1,> 100 µM,> 100 µM
CCCn1cnc2c(c1=N)C(c1ccc(OC)cc1)c1sc3c(C)cccc3c1O2 (stereo not given),0.36 µM,13.4 µM
COC(=O)[C@@H]1CCCN1C(=O)[C@H]1CCCN1C(=O)[C@@H](Cc1c[nH]c2ccccc12)NC(=S)Nc1cc(C(F)(F)F)cc(C(F)(F)F)c1,2.15 µM,6.94 µM

Structure (SMILES),GI50,TGI
CCN1CCC(CC(=O)Nc2n[nH]c3nc(-c4cccs4)c(Br)cc23)CC1,4.53 µM,10.8 µM
COc1cc2ncn(-c3cc(OCc4ccccc4S(C)(=O)=O)c(C#N)s3)c2cc1OC,> 25 µM,> 25 µM
COc1cc(-c2n/c(=C\c3c(O)[nH]c4ccccc34)cc3c2=Nc2ccccc2-3)cc(OC)c1OC,2.57 µM,7.74 µM
Cc1cc2nc3c4cccc(O)c4n(CCN(C)C)c3nc2cc1C,2.56 µM,8.19 µM
COc1ccc(-c2ccccc2)cc1-c1c(Nc2cc(Cl)cc(Cl)c2O)c(=O)c1=O,1.13 µM,3.91 µM
O=[N+]([O-])c1cccc(-c2cc(-c3cc(Br)ccc3O)[nH]n2)c1,1.47 µM,21.1 µM
COc1ccc2[nH]cc(-c3nc(-c4c[nH]c5ccncc45)cs3)c2c1,1.78 µM,3.67 µM
Oc1cc(Cl)ccc1Cc1ccc(Cl)cc1O,11.7 µM,35.5 µM
O=[N+]([O-])/C=C/c1ccc([N+](=O)[O-])cc1,1.51 µM,3.3 µM
Cc1ccc(Oc2nc3ccccc3cc2-c2nnc(Cn3c(COc4ccccc4)nc4ccccc43)o2)cc1,3.95 µM,18.3 µM
CC(=O)NC1=CC(=O)c2cc(C)cc(O)c2C1=O,1.87 µM,5.98 µM
CCC(=O)c1ccc2c(c1)N(CCCN1CCN(CCO)CC1)c1ccccc1S2,10.5 µM,23.5 µM
COc1cc(OC)cc(-c2cncn2-c2ccc(-c3nc4cc(OC)cc(OC)c4s3)cc2)c1,3.17 µM,> 100 µM
C[C@@H]1COC(Nc2ccc3ncnc(Nc4ccc(OCc5nccs5)c(Cl)c4)c3c2)=N1,0.181 µM and 0.0396 µM,1.59 µM and 0.294 µM
Cc1cc(NC(=O)NC(=O)c2ccccc2NC(=O)CN)ccc1Oc1ncc(Br)cn1,0.065 µM,36.8 µM
CNCCOC(=O)/C=C1/CCC2C(C(O)CC3C(C)(C(=O)OC)CCCC23C)C1C (stereo not given),0.0377 µM,0.148 µM
COc1ccc(-c2nc3sc4c(c3c(=O)[nH]2)CCCC4)c2ccccc12,1.42 µM,5.55 µM and 8.96 µM
Cc1ccccc1C(C(=O)NC1CCCCC1)N(C(=O)Cn1ccnc1C)c1cccc(F)c1 (stereo not given),> 100 µM,> 100 µM
O=C(Nc1cccc(-n2ccc3c(NC(=O)c4ccccc4)nccc32)c1)c1cc(N2CCOCC2)cc(C(F)(F)F)c1,0.0484 µM,1.42 µM
Cc1ccc(C[P+](c2ccccc2)(c2ccccc2)c2ccccc2)cc1,0.172 µM,1.19 µM
